# Experimental data: PMC10535864, “Novel Aminopyrimidine-2,4-diones, 2-Thiopyrimidine-4-ones, and 6-Arylpteridines as Dual-Target Inhibitors of BRD4/PLK1: Design, Synthesis, Cytotoxicity, and Computational Studies” (Pharmaceuticals, 2023)
# Tests used:
# Assay type in all cases: cell-based
# [1] = tested on: MDA-MB-231 breast cancer cells; assay: MTT cytotoxicity assay, MDA-MB-231; conditions: MDA-MB-231, MTT; for IC50: mean of three independent experiments ± SD, read-out: IC50 Value MDA-MB-231
# Method: (§1) All newly synthetic compounds were tested for cytotoxicity using a six-dose MTT colorimetric assay on three cancer cell lines; namely, breast cancer cells (MDA-MB-231), colorectal adenocarcinoma cells (HT-29) and renal cancer cells (U-937). […] However, renal cancer cells (U-937) were discovered to be the least sensitive.
# (§2) Using a six-dose MTT colorimetric assay, all new synthetic compounds were tested for cytotoxicity against three cancer cell lines: MDA-MB-231 breast cancer cells, HT-29 colorectal adenocarcinoma cells, and U-937 renal cancer cells. […] These cell lines were supplied by ATCC (American Type Culture Collection) via the Holding company for biological products and vaccines (VACSERA, Cairo, Egypt). The reference control used was Methotrexate. Detailed descriptions of the MTT colorimetric assay’s protocol can be found in the Supplementary file.
# (§3) 1.1.In-vitro cytotoxicity screening
# (§4) Using a six-dose MTT colorimetric assay, allnew synthetic compounds were tested for cytotoxicity against three cancer cell lines: MDA-MB-231 breast cancer cells,HT-29 colorectal adenocarcinoma cells, and U-937 renal […]
# (§5) The cell lines were supplied by ATCC (American Type Culture Collection). The reference control used was Methotrexate. The cytotoxic activities of the examined compounds were quantified by inoculating a 96-well tissue culture plate with 1 X 10^5 cells / mL (100 uL/well) and incubating it at 37°C for 24 hours to develop a complete monolayer sheet. After forming a confluent sheet of cells, the growth medium was decanted from 96-well microtiter plates, and the cell monolayer was washed twice with wash media. Two-fold dilutions of tested samples were made in RPMI medium with 2% serum (maintenance medium), and 0.1 mL of each dilution was tested in different wells, with three wells serving as controls and receiving only maintenance medium. Following that, the plate was incubated at 37°C and examined. Cells were investigated for any physical signs of toxicity, such as partial or complete monolayer loss, rounding, shrinkage, or cell granulation. MTT solution was prepared (5mg/ml in PBS) (BIO BASIC CANADA INC), and 20 uL MTT solution was added to each well. After 5 minutes on a shaking table at150 rpm to thoroughly mix the MTT into the media, it was incubated (37°C, 5% CO2) for 4 hours to allow the MTT to be metabolized. Formazan (MTT metabolic product) was resuspended in 200 uL DMSO and shaken at 150 rpm for 5 minutes to thoroughly mix the formazan into the solvent. The optical density was measured at 560 nm, and the background was subtracted at 620 nm. Finally, the IC50 of the test compound in comparison to the reference was calculated using the GraphPad Prism software. […]
# [2] = tested on: HT-29 colorectal adenocarcinoma cells; assay: MTT cytotoxicity assay, HT-29; conditions: MTT; for IC50: mean of three independent experiments ± SD, read-out: IC50 Value HT-29
# Method: as §1, §2, §3, §4, §5
# [3] = MTT cytotoxicity assay, U-937; conditions: Homo sapiens, U-937, U937, MTT;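 also: Six-dose MTT colorimetric assay on cell monolayers, formazan absorbance read at 560 nm with 620 nm background removed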
# U-937 renal cancer cells = assay: MTT cytotoxicity assay, U-937; conditions: MTT; for IC50: Homo sapiens, U-937, mean of three independent experiments ± SD, read-out: IC50 Value U-937; for Toxicity %: U937;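 as to all read-outs here: Six-dose MTT colorimetric assay on cell monolayers, formazan absorbance read at 560 nm with 620 nm background removed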
# [4] = MTT cytotoxicity assay, normal Vero cells; conditions: African green monkey, normal Vero cells, MTT;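 also: monolayers exposed to two-fold dilutions in 2% serum medium, MTT added for 4 h, formazan in DMSO read at 560 nm minus 620 nm, controls given medium alone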
# Method: (§6) Using a six-dose MTT colorimetric assay [44, 66], all new synthetic compounds were tested for cytotoxicity against three cancer cell lines: MDA-MB-231 breast cancer cells, HT-29 colorectal adenocarcinoma cells, and U-937 renal cancer cells. […] These cell lines were supplied by ATCC (American Type Culture Collection) via the Holding company for biological products and vaccines (VACSERA, Cairo, Egypt). The reference control used was Methotrexate.
# (§7) Using a six-dose MTT colorimetric assay [44, 66], allnew synthetic compounds were tested for cytotoxicity against three cancer cell lines: MDA-MB-231 breast cancer cells,HT-29 colorectal adenocarcinoma cells, and U-937 renal
# (§8) The cell lines were supplied by ATCC (American Type Culture Collection). The reference control used was Methotrexate. The cytotoxic activities of the examined compounds were quantified by inoculating a 96-well tissue culture plate with 1 X 10^5 cells / mL (100 uL/well) and incubating it at 37°C for 24 hours to develop a complete monolayer sheet. After forming a confluent sheet of cells, the growth medium was decanted from 96-well microtiter plates, and the cell monolayer was washed twice with wash media. Two-fold dilutions of tested samples were made in RPMI medium with 2% serum (maintenance medium), and 0.1 mL of each dilution was tested in different wells, with three wells serving as controls and receiving only maintenance medium. Following that, the plate was incubated at 37°C and examined. Cells were investigated for any physical signs of toxicity, such as partial or complete monolayer loss, rounding, shrinkage, or cell granulation. MTT solution was prepared (5mg/ml in PBS) (BIO BASIC CANADA INC), and 20 uL MTT solution was added to each well. After 5 minutes on a shaking table at150 rpm to thoroughly mix the MTT into the media, it was incubated (37C, 5% CO2) for 4 hours to allow the MTT to be metabolized. Formazan (MTT metabolic product) was resuspended in 200 uL DMSO and shaken at 150 rpm for 5 minutes to thoroughly mix the formazan into the solvent. The optical density was measured at 560 nm, and the background was subtracted at 620 nm. Finally, the IC50 of the test compound in comparison to the reference was calculated using the GraphPad Prism software.
# normal Vero cells = assay: MTT cytotoxicity assay, normal Vero cells; conditions: Vero, MTT;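 also: monolayers exposed to two-fold dilutions in 2% serum medium, MTT added for 4 h, formazan in DMSO read at 560 nm minus 620 nm, controls given medium alone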
# Method: as §6, §7, §8
# [5] = Homo sapiens, HT-29, HT29, 0.312 uM
# [6] = Homo sapiens, HT-29, HT29, 0.625 uM
# [7] = Homo sapiens, HT-29, HT29, 1.25 uM
# [8] = Homo sapiens, HT-29, HT29, 2.5 uM
# [9] = Homo sapiens, HT-29, HT29, 5 uM
# [10] = Homo sapiens, HT-29, HT29, 10 uM
structure (smiles),measurement,setting,value
"Nc1c(/N=C(/CBr)c2ccc([N+](=O)[O-])cc2)c(=O)[nH]c(=O)n1Cc1ccccc1Cl [Compound 5c, (E)-6-Amino-5-((2-bromo-1-(4-nitrophenyl)ethylidene)amino)-1-(2-chlorobenzyl) pyrimidine-2,4(1H,3H)-dione]",IC50,[1]; Homo sapiens,3.28 ± 0.04 µM
same,viability at 0.312 µM,"[1]; Homo sapiens, 0.312 uM",99.4%
same,viability at 0.625 µM,"[1]; Homo sapiens, 0.625 uM",98.4%
same,viability at 1.25 µM,"[1]; Homo sapiens, 1.25 uM",96.1%
same,viability at 2.5 µM,"[1]; Homo sapiens, 2.5 uM",62.4%
same,viability at 5 µM,"[1]; Homo sapiens, 5 uM",14.9%
same,viability at 10 µM,"[1]; Homo sapiens, 10 uM",5.54%
same,Toxicity %,[1]; 0.312 uM,0.6206%
same,Toxicity %,[1]; 0.625 uM,1.551%
same,Toxicity %,[1]; 1.25 uM,3.901%
same,Toxicity %,[1]; 2.5 uM,37.63%
same,Toxicity %,[1]; 5 uM,85.06%
same,Toxicity %,[1]; 10 uM,94.46%
same,Toxicity %,"[2]; HT29, 0.312 uM",0.1292%
same,Toxicity %,"[2]; HT29, 0.625 uM",0.2153%
same,Toxicity %,"[2]; HT29, 1.25 uM",6.417%
same,Toxicity %,"[2]; HT29, 2.5 uM",59.99%
same,Toxicity %,"[2]; HT29, 5 uM",93.84%
same,Toxicity %,"[2]; HT29, 10 uM",94.36%
same,viability at 0.312 µM,[2]; [5],99.9%
same,viability at 0.625 µM,[2]; [6],99.8%
same,viability at 1.25 µM,[2]; [7],93.6%
same,viability at 2.5 µM,[2]; [8],40%
same,viability at 5 µM,[2]; [9],6.16%
same,viability at 10 µM,[2]; [10],5.64%
same,IC50,"[2]; Homo sapiens, HT-29",2.24 ± 0.04 µM
same,viability at 0.312 µM,[3],99.7%
same,viability at 0.625 µM,[3],99.5%
same,viability at 1.25 µM,[3],99.7%
same,viability at 2.5 µM,[3],99.3%
same,viability at 5 µM,[3],48.2%
same,viability at 10 µM,[3],14.3%
same,IC50,U-937 renal cancer cells,6.17 ± 0.15 µM
same,Toxicity %,U-937 renal cancer cells; 0.312 uM,0.3268%
same,Toxicity %,U-937 renal cancer cells; 0.625 uM,0.4902%
same,Toxicity %,U-937 renal cancer cells; 1.25 uM,0.2723%
same,Toxicity %,U-937 renal cancer cells; 2.5 uM,0.6536%
same,Toxicity %,U-937 renal cancer cells; 5 uM,51.8%
same,Toxicity %,U-937 renal cancer cells; 10 uM,85.73%
"Cn1c(SCC(=O)c2ccc([N+](=O)[O-])cc2)nc(=O)c(/N=C(/CBr)c2ccc([N+](=O)[O-])cc2)c1N [Compound 8, (E)-6-Amino-5-((2-bromo-1-(4-nitrophenyl)ethylidene)amino)-1-methyl-2-((2-(4-nitrophenyl)-2-oxoethyl)thio)pyrimidin-4(1H)-one]",IC50,[1]; Homo sapiens,2.31 ± 0.06 µM
same,viability at 0.312 µM,"[1]; Homo sapiens, 0.312 uM",97.6%
same,viability at 0.625 µM,"[1]; Homo sapiens, 0.625 uM",95.3%
same,viability at 1.25 µM,"[1]; Homo sapiens, 1.25 uM",83.8%
same,viability at 2.5 µM,"[1]; Homo sapiens, 2.5 uM",43.7%
same,viability at 5 µM,"[1]; Homo sapiens, 5 uM",35.9%
same,viability at 10 µM,"[1]; Homo sapiens, 10 uM",35.4%
same,Toxicity %,[1]; 0.312 uM,2.394%
same,Toxicity %,[1]; 0.625 uM,4.743%
same,Toxicity %,[1]; 1.25 uM,16.18%
same,Toxicity %,[1]; 2.5 uM,56.29%
same,Toxicity %,[1]; 5 uM,64.1%
same,Toxicity %,[1]; 10 uM,64.58%
same,Toxicity %,"[2]; HT29, 0.312 uM",0.08613%
same,Toxicity %,"[2]; HT29, 0.625 uM",0.1292%
same,Toxicity %,"[2]; HT29, 1.25 uM",0.5599%
same,Toxicity %,"[2]; HT29, 2.5 uM",0.3876%
same,Toxicity %,"[2]; HT29, 5 uM",50.34%
same,Toxicity %,"[2]; HT29, 10 uM",77.91%
same,viability at 0.312 µM,[2]; [5],99.9%
same,viability at 0.625 µM,[2]; [6],99.9%
same,viability at 1.25 µM,[2]; [7],99.4%
same,viability at 2.5 µM,[2]; [8],99.6%
same,viability at 5 µM,[2]; [9],49.7%
same,viability at 10 µM,[2]; [10],22.1%
same,IC50,"[2]; Homo sapiens, HT-29",6.48 ± 0.08 µM
same,viability at 0.312 µM,[3],99.6%
same,viability at 0.625 µM,[3],99.3%
same,viability at 1.25 µM,[3],99.9%
same,viability at 2.5 µM,[3],99.8%
same,viability at 5 µM,[3],79.6%
same,viability at 10 µM,[3],27.6%
same,IC50,U-937 renal cancer cells,7.77 ± 0.04 µM
same,Toxicity %,U-937 renal cancer cells; 0.312 uM,0.3813%
same,Toxicity %,U-937 renal cancer cells; 0.625 uM,0.6536%
same,Toxicity %,U-937 renal cancer cells; 1.25 uM,0.05447%
same,Toxicity %,U-937 renal cancer cells; 2.5 uM,0.2179%
same,Toxicity %,U-937 renal cancer cells; 5 uM,20.42%
same,Toxicity %,U-937 renal cancer cells; 10 uM,72.39%
"CN(Cc1cnc2nc(N)nc(N)c2n1)c1ccc(C(=O)N[C@@H](CCC(=O)O)C(=O)O)cc1 [Methotrexate, reference compound]",IC50,[1]; Homo sapiens,2.79 ± 0.06 µM
same,viability at 0.078 µM,"[1]; Homo sapiens, 0.078 uM",99.9%
same,viability at 0.156 µM,"[1]; Homo sapiens, 0.156 uM",99.7%
same,viability at 0.312 µM,"[1]; Homo sapiens, 0.312 uM",99.6%
same,viability at 0.625 µM,"[1]; Homo sapiens, 0.625 uM",99.8%
same,viability at 1.25 µM,"[1]; Homo sapiens, 1.25 uM",81.5%
same,viability at 2.5 µM,"[1]; Homo sapiens, 2.5 uM",42.4%
same,viability at 5 µM,"[1]; Homo sapiens, 5 uM",19.5%
same,viability at 10 µM,"[1]; Homo sapiens, 10 uM",11.8%
same,Toxicity %,[1]; 0.078 uM,0.0883%
same,Toxicity %,[1]; 0.156 uM,0.2649%
same,Toxicity %,[1]; 0.312 uM,0.3532%
same,Toxicity %,[1]; 0.625 uM,0.2208%
same,Toxicity %,[1]; 1.25 uM,18.45%
same,Toxicity %,[1]; 2.5 uM,57.62%
same,Toxicity %,[1]; 5 uM,80.53%
same,Toxicity %,[1]; 10 uM,88.17%
same,Toxicity %,"[2]; HT29, 0.078 uM",0.5016%
same,Toxicity %,"[2]; HT29, 0.156 uM",0.912%
same,Toxicity %,"[2]; HT29, 0.312 uM",0.228%
same,Toxicity %,"[2]; HT29, 0.625 uM",26.95%
same,Toxicity %,"[2]; HT29, 1.25 uM",66.94%
same,Toxicity %,"[2]; HT29, 2.5 uM",89.83%
same,Toxicity %,"[2]; HT29, 5 uM",97.45%
same,Toxicity %,"[2]; HT29, 10 uM",97.58%
same,viability at 0.078 µM,"[2]; Homo sapiens, HT-29, HT29, 0.078 uM",99.5%
same,viability at 0.156 µM,"[2]; Homo sapiens, HT-29, HT29, 0.156 uM",99.1%
same,viability at 0.312 µM,[2]; [5],99.8%
same,viability at 0.625 µM,[2]; [6],73.1%
same,viability at 1.25 µM,[2]; [7],33.1%
same,viability at 2.5 µM,[2]; [8],10.2%
same,viability at 5 µM,[2]; [9],2.55%
same,viability at 10 µM,[2]; [10],2.42%
same,IC50,"[2]; Homo sapiens, HT-29",0.99 ± 0.02 µM
same,viability at 0.078 µM,[3]; 0.078 uM,99.9%
same,viability at 0.156 µM,[3]; 0.156 uM,99.9%
same,viability at 0.312 µM,[3],98.9%
same,viability at 0.625 µM,[3],96.9%
same,viability at 1.25 µM,[3],47.5%
same,viability at 2.5 µM,[3],31.5%
same,viability at 5 µM,[3],8.38%
same,viability at 10 µM,[3],7.63%
same,IC50,U-937 renal cancer cells,1.22 ± 0.02 µM
same,Toxicity %,U-937 renal cancer cells; 0.078 uM,0.1004%
same,Toxicity %,U-937 renal cancer cells; 0.156 uM,0.0502%
same,Toxicity %,U-937 renal cancer cells; 0.312 uM,1.104%
same,Toxicity %,U-937 renal cancer cells; 0.625 uM,3.112%
same,Toxicity %,U-937 renal cancer cells; 1.25 uM,52.46%
same,Toxicity %,U-937 renal cancer cells; 2.5 uM,68.47%
same,Toxicity %,U-937 renal cancer cells; 5 uM,91.62%
same,Toxicity %,U-937 renal cancer cells; 10 uM,92.37%
same,IC50,"[4]; mean of three independent experiments ± SD, read-out: In Vitro Cytotoxicity against Normal Cells IC50 Value, Vero Cells",10.2 ± 0.3 µM
same,viability at 0.312 µM,"[4]; Vero, 0.312 uM",99.7%
same,viability at 0.625 µM,"[4]; Vero, 0.625 uM",100%
same,viability at 1.25 µM,"[4]; Vero, 1.25 uM",99.3%
same,viability at 2.5 µM,"[4]; Vero, 2.5 uM",97.3%
same,viability at 5 µM,"[4]; Vero, 5 uM",87.6%
same,viability at 10 µM,"[4]; Vero, 10 uM",50.2%
same,Toxicity %,normal Vero cells; 0.312 uM,0.3046%
same,Toxicity %,normal Vero cells; 0.625 uM,0.04352%
same,Toxicity %,normal Vero cells; 1.25 uM,0.7398%
same,Toxicity %,normal Vero cells; 2.5 uM,2.698%
same,Toxicity %,normal Vero cells; 5 uM,12.45%
same,Toxicity %,normal Vero cells; 10 uM,49.78%
